Read-outs that look alike come from different tables or passages of the source.

The results in this text go back to US9139585B2 (Merck Sharp & Dohme Corp., priority 2011, dated 2015).

One experiment concerns the target hROMK (hKir1.1) (Homo sapiens (Human), UniProt P48048). Put plainly: Thallium Flux Assay (ROMK channel functional thallium flux, FLIPR-Tetra). It is filed as cell-based. The method, then:
Another ROMK functional assay makes use of the ability of thallium to permeate through open ROMK channels and increase the fluorescence of a dye previously loaded into the cells. Under control conditions, cells loaded with dye and exposed to thallium-containing medium display a time-dependent increase in fluorescence, the rate of which depends on number of functional channels. When cells are incubated in the presence of a channel inhibitor, the increase in fluorescence is attenuated in a concentration-dependent manner, and IC50 values of inhibition by compounds can be accurately determined. This assay has been established with cell lines expressing either human, or rat ROMK channels, and operates in 384-well format.
HEK293 cells stably expressing hROMK (hKir1.1) were grown at 37° C. in a 10% CO2 humidified incubator in complete growth media: Dulbecco's Modified Eagle Medium supplemented with non-essential amino acids, Penicillin/Streptomycin/Glutamine, G418 and FBS. At >80% confluency, the media was aspirated from the flask and the sample was rinsed with 10 ml Calcium/Magnesium-free PBS. […] To dislodge the cell, the side of the flask was gently banged with a hand. The cells were triturated completely and then transferred to 25 ml complete media. The sample was then centrifuged at 1,500 rpm for 6 minutes, followed by resuspension in complete growth media and then cell concentration was determined. […] Under ideal growth conditions and appropriate tissue culture practices, this cell line is stable for 40-45 passages.
FluxOR Kit Components (Invitrogen F10017)
• FluxOR™ Reagent (Component A) • FluxOR™ Assay Buffer (Component B)—10× Concentrate • PowerLoad™ Concentrate (Component C)—100× Concentrate • Probenecid (Component D)—Lyophilized sample is kept at −20° C. Water soluble, 100× after solubilization in 1 ml water. […] Store at 4° C. • Thallium sulfate (Tl2SO4) Concentrate (Component G)—50 mM in water. Store at 4° C. • DMSO (dimethyl sulfoxide, Component H)—1 ml (100%) Reagent Preparation— FluxOR Working Solutions • 1000× FluxOR™ Reagent: Reconstitute a vial of component A in 100 μl DMSO; Mix well; Store 10 μl aliquots at −20° C. • 1× FluxOR™ Assay Buffer: Dilute Component B 10-fold with water; Adjust pH to 7.4 with Hepes/NaOH; Filter and store at 4° C. • Probenecid/Assay Buffer: 100 ml of 1× FluxOR™ Assay Buffer; 1 ml of reconstituted component D; Store at 4° C. • Loading Buffer (per microplate): 10 μl 1000× FluxOR™ Reagent; 100 μl component C; 10 ml Probenecid/Assay Buffer • Compound Buffer (per microplate): 20 ml Probenecid/Assay Buffer; 0.3 mM ouabain (10 mM ouabain in water can be stored in amber bottle/aluminum foil at room temperature);
Test compound • 1× FluxOR™ Chloride-Free Buffer: Prepare 1× working solution in water. Can be stored at room temperature • Stimulant Buffer (prepared at 5× final concentration in 1× FluxOR™ Chloride-Free Buffer): 7.5 mM Thallium sulfate and 0.75 mM Potassium sulfate (to give a final assay concentration of 3 mM Thallium/0.3 mM Potassium). Store at 4° C. when not in use. If kept sterile, this solution is good for months. Assay Protocol—
The ROMK channel functional thallium flux assay is performed in 384 wells, using the FLIPR-Tetra instrument. HEK-hKir1.1 cells are seeded in Poly-D-Lysine microplates and kept in a 37° C.-10% CO2 incubator overnight. On the day of the experiment, the growth media is replaced with the FluxOR™ reagent loading buffer and incubated, protected from light, at ambient temperature (23-25° C.) for 90 min. The loading buffer is replaced with assay buffer±test compound followed by 30 min incubation at ambient temperature, where the Thallium/Potassium stimulant is added to the microplate.
• 1. Seed HEK-hKir1.1 cells (50 μl at 20,000 cells/well) in 384-well PDL coated Microplates • 2. Allow cells to adhere overnight in humidified 37° C./10% CO2 incubator • 3. Completely remove cell growth media from microplate and replace with 25 μl loading buffer • 4.

The target of another experiment is Kir1.1 (ROMK1) (Homo sapiens (Human), UniProt P48048). In words: Electrophysiology Assay (whole cell voltage clamp, IonWorks Quattro). Type of experiment: cell-based. Conditions: read-out: EP Assay IC50. From the text:
Several assays may be used to measure functional inhibition of the ROMK channel by compounds of the instant invention. One assay that can be used is an electrophysiology assay that measures the electrical current that is generated as potassium permeates through the channel.
Block of Kir1.1 (ROMK1) currents was examined by whole cell voltage clamp (Hamill et. al. Pfluegers Archives 391:85-100 (1981)) using the IonWorks® Quattro automated electrophysiology platform (Molecular Devices, Sunnyvale, Calif.). Chinese hamster ovary cells stably expressing Kir1.1 channels were maintained in T-75 flasks in cell culture media in a humidified 10% CO2 incubator at 37° C. Prior to an experiment, Kir1.1 expression was induced by overnight incubation with 1 mM sodium butyrate. On the day of the experiment, cells were dissociated with 2.5 ml of Versene™ (Invitrogen 15040-066) for approximately 6 minutes at 37° C. and suspended in 10 ml of bath solution containing (in mM): 150 NaCl, 10 KCl, 2.7 CaCl2, 0.5 MgCl2, 5 HEPES, pH 7.4. After centrifugation, the cell pellet was resuspended in approximately 4.0 ml of bath solution and placed in the IonWorks® instrument. The intracellular solution consisted of (in mM): 80 K gluconate, 40 KCl, 20 KF, 3.2 MgCl2, 3 EGTA, 5 Hepes, pH 7.4. Electrical access to the cytoplasm was achieved by perforation in 0.13 mg/ml amphotericin B for 4 minutes. Amphotericin B (Sigma A-4888) was prepared as a 40 mg/ml solution in DMSO.
Voltage protocols and current recordings were performed using the IonWorks® HT software/hardware system. Currents were sampled at 1 kHz. No correction for liquid junction potentials was used. The test pulse, consisting of a 100 ms step to 0 mV from a holding potential of −70 mV, followed by a 100 ms voltage ramp from −70 mV to +70 mV, was applied before and after a 6 minutes compound incubation period. Test compounds were prepared by diluting DMSO stock solutions into the bath solution at 3× the final concentration and placed in the instrument in 96-well polypropylene plates. Current amplitudes were measured using the IonWorks® software. To assess compound potency, the fractional block during the voltage step to 0 mV was calculated in Microsoft® Excel (Microsoft, Redmond, Calif.), and dose-response curves were fitted with Igor Pro 4.0 (WaveMetrics, Lake Oswego, Oreg.).
In general terms: In patch-clamp work, channel activity is measured electrically.

Where [1] appears, read: HEK293 cells stably expressing hROMK (hKir1.1), read-out: Thallium Flux Assay IC50.
The mark [2] stands for this setting: Chinese hamster ovary cells stably expressing Kir1.1, block during voltage step to 0 mV.

Chain of hROMK (hKir1.1) (P48048 whole entry): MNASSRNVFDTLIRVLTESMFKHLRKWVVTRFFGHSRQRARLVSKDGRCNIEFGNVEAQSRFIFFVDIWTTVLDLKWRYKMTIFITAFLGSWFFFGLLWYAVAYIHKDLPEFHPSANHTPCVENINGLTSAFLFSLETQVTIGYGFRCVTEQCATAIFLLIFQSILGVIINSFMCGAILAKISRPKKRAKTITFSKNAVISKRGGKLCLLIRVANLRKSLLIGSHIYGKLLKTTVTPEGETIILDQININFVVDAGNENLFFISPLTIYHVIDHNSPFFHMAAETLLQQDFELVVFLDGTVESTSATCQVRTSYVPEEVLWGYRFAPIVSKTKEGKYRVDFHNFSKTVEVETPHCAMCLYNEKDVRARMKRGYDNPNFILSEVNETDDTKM
Chain of Kir1.1 (ROMK1) (P48048 whole entry, species assumed): as the sequence (P48048 whole entry) above

One may read the IC50 as the concentration that inhibits the measured activity by half. On to `Cc1c([C@@H](O)CN2CCN(c3ccc(C#N)cn3)CC2)ccc2c1COC2=O` [Example 11, (R)-6-(4-(2-Hydroxy-2-(4-methyl-1-oxo-1,3-dihydroisobenzofuran-5-yl)ethyl)piperazin-1-yl)nicotinonitrile], for which the 50% inhibitory concentration (IC50) at hROMK (hKir1.1) (setting [1]) worked out at 743 nM; on Kir1.1 (ROMK1) (setting [2]), 54 nM.

Take `Cc1c([C@@H](O)CN2[C@@H]3CC[C@H]2CN(C(=O)c2ccc(-n4cnnn4)nc2)C3)ccc2c1COC2=O` [Example 12, 5-((R)-2-((1R,5S)-3-(6-(1H-Tetrazol-1-yl)nicotinoyl)-3,8-diazabicyclo[3.2.1]octan-8-yl)-1-hydroxyethyl)-4-methylisobenzofuran-1 (3H)-one]: the figures for the IC50 on hROMK (hKir1.1) (setting [1]) and at Kir1.1 (ROMK1) (setting [2]) were 342 nM and 140 nM, respectively.

Consider `Cc1c([C@@H](O)CN2C3CCC2C2CCC3N2C(=O)c2ccc(-n3cnnn3)nc2)ccc2c1COC2=O` [Example 13], for which the IC50 worked out at 985 nM against hROMK (hKir1.1) (Thallium Flux Assay IC50) and 130 nM at Kir1.1 (ROMK1).

In the case of `Cc1c([C@@H](O)CN2C[C@H]3CC[C@@H](C2)N3S(=O)(=O)c2ccc(-n3cnnn3)cc2)ccc2c1COC2=O` [Example 16], the figures for the half-maximal inhibitory concentration (IC50) against hROMK (hKir1.1) (Thallium Flux Assay IC50) and on Kir1.1 (ROMK1) were 397 nM and 54 nM, respectively.

As for `Cc1c([C@@H](O)CN2CC3COCC(C2)N3C[C@H](O)c2ccc3c(c2C)COC3=O)ccc2c1COC2=O` [Example 18, 5,5′-(1R,1′R)-2,2′-(3-Oxa-7,9-diazabicyclo[3.3.1]nonane-7,9-diyl)bis(1-hydroxyethane-2,1-diyl)bis(4-methylisobenzofuran-1(3H)-one)], the values for the concentration for half-maximal inhibition (IC50) at hROMK (hKir1.1) (setting [1]) and at Kir1.1 (ROMK1) (setting [2]) were 30.8 nM and 30 nM, respectively.

On to `Cc1c([C@@H](O)CN2CC3COCC(C2)N3CC(O)c2ccc(C#N)cn2)ccc2c1COC2=O` (stereo partly drawn) [Example 20, 6-(1-Hydroxy-2-(7-((R)-2-hydroxy-2-(4-methyl-1-oxo-1,3-dihydroisobenzofuran-5-yl)ethyl)-3-oxa-7,9 diazabicyclo[3.3.1]nonan-9-yl)ethyl)nicotinonitrile], for which the results for the IC50 at hROMK (hKir1.1) (setting [1]) and on Kir1.1 (ROMK1) (setting [2]) were 78 nM and 29.5 nM, respectively.

With `Cc1c([C@@H](O)CN2C3COCC2CN(CCc2ccc4c(c2)C[C@@H](C)OC4=O)C3)ccc2c1COC2=O` [Example 21, (R)-6-(2-(9-((R)-2-Hydroxy-2-(4-methyl-1-oxo-1,3-dihydroisobenzofuran-5-yl)ethyl)-3-oxa-7,9-diazabicyclo[3.3.1]nonan-7-yl)ethyl)-3-methylisochroman-1-one], the IC50 on hROMK (hKir1.1) (Thallium Flux Assay IC50) was 36 nM; at Kir1.1 (ROMK1), 45 nM.

`Cc1c([C@@H](O)CN2C3COCC2CN(CCc2ccc4c(c2)C[C@H](C)OC4=O)C3)ccc2c1COC2=O` [Example 22, (S)-6-(2-(9-((R)-2-Hydroxy-2-(4-methyl-1-oxo-1,3-dihydroisobenzofuran-5-yl)ethyl)-3-oxa-7,9-diazabicyclo[3.3.1]nonan-7-yl)ethyl)-3-methylisochroman-1-one]: the IC50 was determined as 42.7 nM at hROMK (hKir1.1) (Thallium Flux Assay IC50) and 32 nM on Kir1.1 (ROMK1).

`Cc1c([C@@H](O)CN2CCN(CCc3ccc4c(c3)C[C@@H](C)OC4=O)CC2)ccc2c1COC2=O` [Example 28, 4-[(2R)-2-Hydroxy-2-(4-methyl-1-oxo-1,3-dihydro-2-benzofuran-5-yl)ethyl]-1-{2-[(3R)-3-methyl-1-oxo-3,4-dihydro-1H-isochromen-6-yl]ethyl}piperazine]: the IC50 stood at 22 nM on hROMK (hKir1.1) (setting [1]) and 33 nM on Kir1.1 (ROMK1) (setting [2]).

With `Cc1c([C@H](O)CN2CCN(CCc3ccc4c(c3)C[C@@H](C)OC4=O)CC2)ccc2c1COC2=O` [Example 29, (R)-6-(2-(4-((S)-2-Hydroxy-2-(4-methyl-1-oxo-1,3-dihydroisobenzofuran-5-yl)ethyl)piperazin-1-yl)ethyl)-3-methylisochroman-1-one], the 50% inhibitory concentration (IC50) on hROMK (hKir1.1) (setting [1]) worked out at 185 nM; at Kir1.1 (ROMK1) (setting [2]), 145 nM.

Regarding `Cc1c([C@@H](O)CN2CCN(CCc3ccc4c(c3)CCOC4=O)CC2)ccc2c1COC2=O` [Example 30, (R)-6-(2-(4-(2-Hydroxy-2-(4-methyl-1-oxo-1,3-dihydroisobenzofuran-5-yl)ethyl)piperazin-1-yl)ethyl)isochroman-1-one], the IC50 on hROMK (hKir1.1) (setting [1]) was determined as 56 nM; on Kir1.1 (ROMK1) (setting [2]) it was 21 nM.

For `Cc1c([C@H](O)CN2CCN(CCc3ccc4c(c3)CCOC4=O)CC2)ccc2c1COC2=O` [Example 31, (S)-6-(2-(4-(2-Hydroxy-2-(4-methyl-1-oxo-1,3-dihydroisobenzofuran-5-yl)ethyl)piperazin-1-yl)ethyl)isochroman-1-one], the IC50 on hROMK (hKir1.1) (setting [1]) came out at 318 nM; at Kir1.1 (ROMK1) (setting [2]) it was 564 nM.

As for `CCc1c(C(O)CN2CCN(CCc3ccc4c(c3)CCOC4=O)CC2)ccc2c1COC2=O` (stereo not shown) [Example 32, 6-(2-(4-(2-(4-Ethyl-1-oxo-1,3-dihydroisobenzofuran-5-yl)-2-hydroxyethyl)piperazin-1-yl)ethyl)isochroman-1-one], the results for the half-inhibitory concentration (IC50) at hROMK (hKir1.1) (setting [1]) and on Kir1.1 (ROMK1) (setting [2]) were 71 nM and 46 nM, respectively.

For the molecule `O=C1OCCc2cc(CCN3CCN(CC(O)c4ccc5c(c4C(F)(F)F)COC5=O)CC3)ccc21` (stereo not shown) [Example 33, 6-(2-(4-(2-Hydroxy-2-(1-oxo-4-(trifluoromethyl)-1,3-dihydroisobenzofuran-5-yl)ethyl)piperazin-1-yl)ethyl)isochroman-1-one], the IC50 at hROMK (hKir1.1) (setting [1]) is 293 nM; on Kir1.1 (ROMK1) (setting [2]) it was 38 nM.
